Source: US20230082968A1, “EXOGENOUS NITRIC OXIDE FOR IMPROVED SUSCEPTIBILITY AND LOWERED ANTIBIOTIC RESISTANCE IN RESISTANT RESPIRATORY BACTERIA” (The University of North Carolina at Chapel Hill, priority 2020, published 2023)
“Also recorded” adds a separate entry of the source.

Assays:
PA 230 = assay: 24 h combination time kill assay; type: cell-based, P. aeruginosa; settings: PA 230 (tobramycin-resistant), COS/NO and tobramycin, 24 h time kill
Experimental: (§1) Time-kill assays were performed over 24 h in order to quantitatively probe the effect of each antibiotic-NO combination as a function of time [Belley, A. et al. Assessment by time-kill methodology of the synergistic effects of oritavancin in combination with other antimicrobial agents against Staphylococcus aureus. Antimicrob. Agents Chemother. 52, 3820-3822 (2008)]. […] Aliquots were sampled at 0, 3, 6, and 24 h, serially diluted, and logarithmically plated on TSA plates using an Eddy Jet spiral plater (IUL; Farmingdale, NY). Bacterial viability was assessed by counting the number of colonies formed with a Flash & Go colony counter (IUL; Farmingdale, NY).

PA 237 = assay: 24 h combination time kill assay; type: cell-based, P. aeruginosa; settings: PA 237, COS/NO and tobramycin, 24 h time kill
Experimental: as §1

PA 229 = assay: 24 h combination time kill assay; type: cell-based, P. aeruginosa; settings: PA 229, COS/NO and tobramycin, 24 h time kill
Experimental: as §1

PA 239 = assay: 24 h combination time kill assay; type: cell-based, P. aeruginosa; settings: PA 239 (tobramycin-resistant), COS/NO and tobramycin, 24 h time kill
Experimental: as §1

AR 239 biofilm = assay: Biofilm pretreatment with nitric oxide; type: cell-based, P. aeruginosa; settings: tobramycin 5000 µg/mL, NO-pretreatment 4 h
Experimental: (§2) Bacteria were cultured to a concentration of 10^8 CFU/mL in TSB and diluted to 10^6 CFU/mL in 200 µL TSB in a 96 well plate. Plates were incubated with shaking for 3 days until a non-surface attached viscous aggregate formed that was easily separated from growth medium. Biofilms (100 µL) were removed, gently injected into PBS (200 µL) to remove loosely adhered planktonic cells, and added to a sterile 96 well plate. To the wells, PBS or test agent dissolved in PBS (100 µL) was added and incubated with shaking for 24 h. The biofilm (100 µL) was removed from the well plate, added to 900 µL sterile MilliQ water, and disrupted with pipetting and vortexing. Disrupted biofilms were serially diluted and spiral plated on TSA. Viability was assessed with colony counting. The minimum biofilm eradication concentration (MBEC) was defined as the lowest concentration of test agent required to reduce viability by 5-log (i.e., 10^8 to 10^3 CFU/mL).
(§3) The biofilm was then removed from its 96 well plate, added to a new 96 well plate containing tobramycin dissolved in PBS (100 µL), and incubated for 20 h. The biofilm was disrupted in 900 µL sterile MilliQ water with pipetting and vortexing, serially diluted, and spiral plated on TSA. Viability was assessed with colony counting.

AR 230 biofilm = assay: Biofilm pretreatment with nitric oxide; type: cell-based, P. aeruginosa; settings: tobramycin 64 µg/mL, NO-pretreatment 4 h
Experimental: as §2, §3

AR 237 biofilm = assay: Biofilm pretreatment with nitric oxide; type: cell-based, P. aeruginosa; settings: tobramycin 1 µg/mL, NO-pretreatment 4 h
Experimental: as §2, §3

AR 229 biofilm = assay: Biofilm pretreatment with nitric oxide; type: cell-based, P. aeruginosa; settings: tobramycin 2 µg/mL, NO-pretreatment 4 h
Experimental: as §2, §3

ATCC MRSA = assay: Nitric oxide pretreatment with planktonic bacteria; type: cell-based, Methicillin-resistant S. aureus
Experimental: (§4) After exposure, wells were serially diluted in sterile MilliQ water and spiral plated on TSA. Viability was assessed by colony counting.

ATCC BCC = assay: Nitric oxide pretreatment with planktonic bacteria; type: cell-based, Burkholderia cepacia complex
Experimental: as §4

ATCC S.aureus = assay: Nitric oxide pretreatment with planktonic bacteria; type: cell-based, Staphylococcus aureus
Experimental: as §4

P. aeruginosa biofilms = assay: Biofilm pretreatment with nitric oxide, all tested biofilms; type: cell-based; settings: all tested P. aeruginosa biofilms incl. tobramycin-resistant strains, COS/NO at 25% MBEC for 4 h
Experimental: as §2, §3

[1] = test system: P. aeruginosa strain K (PAK); assay: Checkerboard assay of antibiotic combinations with COS/NO; type: cell-based, Pseudomonas aeruginosa; settings: antibiotic in combination with COS/NO, 24 h
Experimental: Frozen stocks of bacteria were reconstituted in TSB (3 mL) and cultured overnight. The overnight cultures of bacteria (3 mL) were inoculated into fresh TSB (30 mL) and grown to 10^8 CFU/mL. […] Inhibition was assessed with the resazurin assay and the minimum inhibitory concentration (MIC) was defined as the lowest concentration of antibacterial agent required to prevent the reduction of resazurin (i.e., color change from blue to pink).
Mol. Pharm. 7, 2289-2296 (2010)]. Briefly, bacteria at a final concentration of 10^6 CFU/mL were incubated with an array of antimicrobial combinations in TSB for 24 h at 37° C. The highest concentration for each antimicrobial tested was 2 × MIC. […] The fractional […] concentration index (ΣFIC) was calculated using Equation 1, reported by Elion et al. [Elion, G. B., Singer, S. & Hitchings, G. H. Antagonists of Nucleic Acid Derivatives: VIII. Synergism in combinations of biochemically related antimetabolites. […] Checkerboard assays were conducted in at least duplicate for each bacterial strain and for each drug combination.
Characterization of the combinations was performed using the following criteria based on ΣFIC values: < 0.25 is highly synergistic; ≤ 0.5 is synergistic; ≤ 1 is additive; ≤ 4 is indifferent; > 4 is antagonistic.

AR 237 = assay: Nitric oxide pretreatment with planktonic bacteria; type: cell-based, P. aeruginosa; settings: AR 237, antibiotic 0.625 µg/mL, NO-pretreatment 25% MIC 4 h
Experimental: as §4

AR 239 = assay: Nitric oxide pretreatment with planktonic bacteria; type: cell-based, P. aeruginosa; settings: AR 239, antibiotic 2000 µg/mL, NO-pretreatment 25% MIC 4 h
Experimental: as §4

AR 230 = assay: Nitric oxide pretreatment with planktonic bacteria; type: cell-based, P. aeruginosa; settings: AR 230, antibiotic 2000 µg/mL, NO-pretreatment 25% MIC 4 h
Experimental: as §4

AR 229 = assay: Nitric oxide pretreatment with planktonic bacteria; type: cell-based, P. aeruginosa; settings: AR 229, antibiotic 0.625 µg/mL, NO-pretreatment 25% MIC 4 h
Experimental: as §4

[2] = antibiotic 4000 µg/mL, NO-pretreatment 25% MIC 4 h

In the case of `NC[C@H]1O[C@H](O[C@H]2[C@H](O)[C@@H](O[C@H]3O[C@H](CO)[C@@H](O)[C@H](N)[C@H]3O)[C@H](N)C[C@@H]2N)[C@H](N)C[C@@H]1O` [Tobramycin], the “interaction of tobramycin-NO combination” value (PA 230) was “indifferent”, the “interaction of tobramycin-NO combination” value (PA 237) was “synergistically” and the “interaction of tobramycin-NO combination” value (PA 229) was “synergistically”. For the same compound, the “interaction of tobramycin-NO combination” value (PA 239) was “indifferent”, the Classification (AR 239 biofilm) was “Synergistic” and the “Log Difference in biofilm viability with vs without NO-pretreatment” value (AR 239 biofilm) was 4.90 log. The Classification (AR 230 biofilm) was “Synergistic”, the “Log Difference in biofilm viability with vs without NO-pretreatment” value (AR 230 biofilm) was 5.15 log and the Classification (AR 237 biofilm) was “Synergistic”. The “Log Difference in biofilm viability with vs without NO-pretreatment” value (AR 237 biofilm) was 4.85 log, the Classification (AR 229 biofilm) was “Synergistic” and the “Log Difference in biofilm viability with vs without NO-pretreatment” value (AR 229 biofilm) was 4.39 log. The “tobramycin-susceptibility with the addition of NO” value (shortened to “tobramycin-susceptibility … of NO”) (ATCC MRSA; NO-pretreatment) was “significant improvement”, the Classification (ATCC MRSA; [2]) was “Synergistic” and the “Log Difference in bacteria viability with vs without NO-pretreatment” value (ATCC MRSA; [2]) was 4.09 log. The “Log Difference in bacteria viability with vs without NO-pretreatment” value (ATCC BCC; ATCC BCC, antibiotic […], NO-pretreatment 25% MIC 4 h) was 5.23 log, the “tobramycin-susceptibility … of NO” value (ATCC BCC; B. cepacia complex, NO-pretreatment) was “significant improvement” and the “tobramycin-susceptibility … of NO” value (ATCC S.aureus; ATCC S. aureus, NO-pretreatment) was “significant improvement”. For the same compound, the “Log Difference in bacteria viability with vs without NO-pretreatment” value (ATCC S.aureus; ATCC S.aureus, antibiotic […], NO-pretreatment 25% MIC 4 h) was 4.88 log, the “tobramycin susceptibility of biofilms after NO-pretreatment” value (P. aeruginosa biofilms) was “significantly more susceptible; also recorded: improved” and the “Classification (ΣFIC)” value [1] was “Additive”. The “ΣFIC (median fractional inhibitory concentration index)” value [1] was 0.625, the Classification (AR 237) was “Synergistic” and the “Log Difference in bacteria viability with vs without NO-pretreatment” value (AR 237) was 3.70 log. For the same compound, the Classification (AR 239) was “Synergistic”, the “Log Difference in bacteria viability with vs without NO-pretreatment” value (AR 239) was 2.27 log and the Classification (AR 230) was “Synergistic”. For the same compound, the “Log Difference in bacteria viability with vs without NO-pretreatment” value (AR 230) was 3.54 log, the Classification (AR 229) was “Synergistic” and the “Log Difference in bacteria viability with vs without NO-pretreatment” value (AR 229) was 4.08 log.
